The record followed here is ChEMBL document CHEMBL1158237, “Jineol, a Cytotoxic Alkaloid from the Centipede Scolopendra subspinipes” (1996).

In brackets after ≈: the same amount, converted by molar mass. Activity calls are given as the source filed them. The calls are words filed in the database; no cut-off is given here.

For test [1], the system named is A549. The test can be described thus: Cytotoxicity against human A549 cells by SRB assay. It is filed as functional. Particulars: read-out: ED50 (the source's name).
The subject of test [2] is SK-OV-3. As to the kind of experiment: Cytotoxicity against human SKOV3 cells by SRB assay. It is filed as functional. Particulars: read-out: ED50 (the source's name). Background: In SRB staining, fixed cells bind dye roughly in proportion to their protein.
Test [3] relates to SK-MEL-2. The test can be described thus: Cytotoxicity against human SK-MEL-2 cells by SRB assay. It is filed as functional. Particulars: read-out: ED50 (the source's name).
Test [4] concerns XF498. As to the kind of experiment: Cytotoxicity against human XF498 cells by SRB assay. It is filed as functional. The following applies: read-out: ED50 (the source's name).
Test [5] has as its system HCT-15. The test can be described thus: Cytotoxicity against human HCT15 cells by SRB assay. The following applies: read-out: ED50 (the source's name). It is filed as functional.
In test [6] the test system is Trichophyton mentagrophytes. As to the kind of experiment: Antifungal activity against Trichophyton mentagrophytes by agar diffusion assay. It is filed as functional, organism-based. For orientation: Agar diffusion results depend on both activity and mobility in agar.

With `Oc1cnc2c(O)cccc2c1` [JINEOL], the EC50 in test [1] came to 5.8 µg/mL (≈ 36 µM); in test [2], 4.5 µg/mL (≈ 27.9 µM); in test [3], 5.6 µg/mL (≈ 34.7 µM); in test [4], 10 µg/mL (≈ 62.1 µM); in test [5], 1.9 µg/mL (≈ 11.8 µM). For the same molecule, in test [6], the result was Active.

Regarding `COc1cccc2c1C(=O)c1c(O)c3c(c(O)c1C2=O)C[C@@](O)(C(=O)CO)C[C@@H]3O[C@H]1C[C@H](N)[C@H](O)[C@H](C)O1` [DOXORUBICIN], the EC50 was found to be 0.05 µg/mL (≈ 0.092 µM) in test [1]; 0.11 µg/mL (≈ 0.202 µM) in test [2]; 0.05 µg/mL (≈ 0.092 µM) in test [3]; 0.1 µg/mL (≈ 0.184 µM) in test [4]; 1.8 µg/mL (≈ 3.31 µM) in test [5].

In the case of `CC(=O)Oc1cnc2c(OC(C)=O)cccc2c1` [JINEOL ACETATE], the EC50 in test [1] is 8 µg/mL; in test [2] it was 14 µg/mL; in test [3], 11 µg/mL; in test [4] it was 12 µg/mL; in test [5], 8 µg/mL.

For the molecule `COc1cnc2c(OC)cccc2c1` [JINEOL METHYL ETHER], the EC50 is 38 µg/mL (≈ 201 µM) in test [1]; 32 µg/mL (≈ 169 µM) in test [2]; 21 µg/mL (≈ 111 µM) in test [3]; 29 µg/mL (≈ 153 µM) in test [4]; 42 µg/mL (≈ 222 µM) in test [5].
